Test results published in patent publication US10626103B2, “Inhibitor of lysine specific demethylase-1” (CELGENE QUANTICEL RESEARCH, INC., priority 2014, dated 2020).

Key:
[1] = target: full-length human LSD1 (Homo sapiens (Human), UniProt O60341); assay: In vitro enzyme inhibition assay LSD-1 (TR-FRET); type: biochemical; settings: H3K4me1-biotin peptide
Procedure: This assay determines the ability of a test compound to inhibit LSD1 demethylase activity.
The enzymatic assay of LSD1 activity is based on Time Resolved-Fluorescence Resonance Energy Transfer (TR-FRET) detection.
Plates were read by EnVision Multilabel Reader in TR-FRET mode (excitation at 320 nm, emission at 615 nm and 665 nm) after 1 hour incubation at room temperature.
The ability of the compounds disclosed herein to inhibit LSD1 activity was quantified and the respective IC50 value was determined.

[2] = system: CD11b expression in THP-1 (AML) cells; assay: LSD1 CD11b cellular assay (flow cytometry); type: cell-based; settings: Homo sapiens, 96 h, THP-1 cells, 4 days
Procedure: To analyze LSD1 inhibitor efficacy in cells, a CDL11b flow cytometry assay was performed. LSD1 inhibition induces CD11b expression in THP-1 (AML) cells which can be measured by flow cytometry. […] LSD 1 test compounds were serially diluted in DMSO. The dilutions were added to each well accordingly to a final concentration of 0.2% DMSO. The cells were incubated at 37 degrees Celsius in 5% CO2 for 4 days. 250 μL of each well was transferred to a well in a 96 well round bottom plate. The plate was centrifuged at 1200 rpm at 4 degrees Celsius in a Beckman Coulter Alegra 6KR centrifuge for 5 minutes. The media was removed leaving the cells at the bottom of the wells. The cells were washed in 100 μL cold HBSS (Hank's Balanced Salt Solution) plus 2% BSA (Bovine Serum Albumin) solution and centrifuged at 1200 rpm at 4 degrees Celsius for 5 minutes. The wash was removed. […] The cells were centrifuged and washed two times in 100 μl HBSS plus 2% BSA. After the final spin the cells were resuspended in 100 μL HBSS plus 2% BSA containing 1 ug/mL DAPI (4′,6-diamidino-2-phenylindole). The cells were then analyzed by flow cytometry in a BD FACSAria machine. Cells were analyzed for CD11b expression. The percent of CD11b expressing cells for each inhibitor concentration was used to determine an IC50 curve for each compound analyzed.

Structure (SMILES) | IC50 [1] [nM] | IC50 [2] [nM]
CN(C)[C@H]1CCN(C(=O)c2cn(-c3ccc4nn(C)c(Cl)c4c3)c(-c3ccc(C#N)c(F)c3)n2)C1 [Example 57, 4-[1-(3-Chloro-2-methylindazol-5-yl)-4-[(3S)-3-(dimethylamino)pyrrolidine-1-carbonyl]imidazol-2-yl]-2-fluorobenzonitrile] | < 100 | < 100
CN[C@H]1CCN(C(=O)c2nc(-c3ccc(C#N)c(F)c3)n(-c3cc(F)c4nn(C)cc4c3)c2C)C1 [Example 51, 2-Fluoro-4-[1-(7-fluoro-2-methylindazol-5-yl)-5-methyl-4-[(3S)-3-(methylamino)pyrrolidine-1-carbonyl]imidazol-2-yl]benzonitrile] | < 100 | < 100
Cc1c(C(=O)N2CCC(N)CC2)nc(-c2ccc(C#N)c(F)c2)n1-c1ccc2nn(C)cc2c1 [Example 43, 4-[4-(4-Aminopiperidine-1-carbonyl)-5-methyl-1-(2-methylindazol-5-yl)imidazol-2-yl]-2-fluorobenzonitrile] | < 100 | 100 to 1000
CN[C@@H]1CCCN(C(=O)c2nc(-c3ccc(C#N)c(F)c3)n(-c3ccc4nn(C)cc4c3)c2C)C1 [Example 98, 2-Fluoro-4-[5-methyl-4-[(3R)-3-(methylamino)piperidine-1-carbonyl]-1-(2-methylindazol-5-yl)imidazol-2-yl]benzonitrile] | < 100 | < 100
Cc1c(C(=O)N2CCC[C@@H](N)C2)nc(-c2ccc(C#N)c(F)c2)n1-c1cc2cn(C)nc2cc1F [Example 47, 4-[4-[(3R)-3-Aminopiperidine-1-carbonyl]-1-(6-fluoro-2-methylindazol-5-yl)-5-methylimidazol-2-yl]-2-fluorobenzonitrile] | < 100 | < 100
N#Cc1ccc(-c2nc(C(=O)N3CCC[C@@H](N)C3)c(Cl)n2-c2ccc(C3CC3)nc2)cc1F [Example 80, 4-[4-[(3R)-3-Aminopiperidine-1-carbonyl]-5-chloro-1-(6-cyclopropylpyridin-3-yl)imidazol-2-yl]-2-fluorobenzonitrile] | < 100 | 100 to 1000
Cc1c(C(=O)N[C@@H]2CCCN(C)C2)nc(-c2ccc(C#N)c(F)c2)n1-c1ccc2nn(C)c(Cl)c2c1 [Example 56, 1-(3-Chloro-2-methylindazol-5-yl)-2-(4-cyano-3-fluorophenyl)-5-methyl-N-[(3R)-1-methylpiperidin-3-yl]imidazole-4-carboxamide] | < 100 | < 100
COc1ccc(-n2c(-c3ccc(C#N)c(F)c3)nc(C(=O)N3CC[C@H](N)C3)c2F)cc1F [Example 89, 4-[4-[(3S)-3-Aminopyrrolidine-1-carbonyl]-5-fluoro-1-(3-fluoro-4-methoxyphenyl)imidazol-2-yl]-2-fluorobenzonitrile] | < 100 | 100 to 1000
Cc1c2cc(-n3c(-c4ccc(C#N)c(F)c4)nc(C(=O)N[C@@H]4CCCNC4)c3C)ccc2nn1C [Example 104, 2-(4-Cyano-3-fluorophenyl)-1-(2,3-dimethylindazol-5-yl)-5-methyl-N-[(3R)-piperidin-3-yl]imidazole-4-carboxamide] | < 100 | < 100
CN[C@H]1CCN(C(=O)c2nc(-c3ccc(C#N)c(F)c3)n(-c3cc4c(Cl)n(C)nc4cc3F)c2C)C1 [Example 111, 4-[1-(3-Chloro-6-fluoro-2-methylindazol-5-yl)-5-methyl-4-[(3S)-3-(methylamino)pyrrolidine-1-carbonyl]imidazol-2-yl]-2-fluorobenzonitrile] | < 100 | < 100
CN(CCN)C(=O)c1cc(-c2ccc(C#N)c(F)c2)c(-c2ccc3nn(C)cc3c2)n1C [Example 31, N-(2-aminoethyl)[4-(4-cyano-3-fluorophenyl)-1-methyl-5-(2-methyl(2H-indazol-5-yl))pyrrol-2-yl]-N-methylcarboxamide] | < 100 | < 100
Cc1c(C(=O)NC2CCCNC2)nc(-c2ccc(C#N)c(F)c2)n1-c1ccc2nn(C)cc2c1 (stereo not drawn) [Example 45, 2-(4-Cyano-3-fluorophenyl)-5-methyl-1-(2-methylindazol-5-yl)-N-piperidin-3-ylimidazole-4-carboxamide] | < 100 | < 100
CN[C@H]1CCN(C(=O)c2nc(-c3ccc(C#N)c(F)c3)n(-c3ccc(OC)c(F)c3)c2F)C1 [Example 68, 2-Fluoro-4-[5-fluoro-1-(3-fluoro-4-methoxyphenyl)-4-[(3S)-3-(methylamino)pyrrolidine-1-carbonyl]imidazol-2-yl]benzonitrile] | < 100 | < 100

Second part, the compound after the results:

IC50 [1] [nM] | IC50 [2] [nM] | Structure (SMILES)
< 100 | < 100 | COc1ccc(-c2c(-c3ccc(C#N)c(F)c3)cc(C(=O)N3CCC[C@@H](N)C3)n2CCO)cc1 [Example 8, 4-[5-(3-(R)-amino-piperidine-1-carbonyl)-1-(2-hydroxy-ethyl)-2-(4-methoxy-phenyl)-1H-pyrrol-3-yl]-2-fluoro-benzonitrile]
< 100 | < 100 | COc1ccc(-c2c(-c3ccc(C#N)c(F)c3)cc(C(=O)N3CCC[C@@H](N)C3)n2CCCC(N)=O)cc1 [Example 42, 4-{5-[((3R)-3-aminopiperidyl)carbonyl]-3-(4-cyano-3-fluorophenyl)-2-(4-methoxyphenyl)pyrrolyl} butanamide]
< 100 | < 100 | COc1ccc(-n2c(-c3ccc(C#N)c(F)c3)nc(C(=O)N3CCC[C@@H](N)C3)c2Cl)cc1F [Example 66, 4-[4-[(3R)-3-Aminopiperidine-1-carbonyl]-5-chloro-1-(3-fluoro-4-methoxyphenyl)imidazol-2-yl]-2-fluorobenzonitrile]
< 100 | < 100 | Cc1ccc(-c2c(-c3ccc(C#N)cc3)cc(C(=O)N3CCC[C@@H](N)C3)n2C)cn1 [Example 5, 4-[5-(3-(R)-amino-piperidine-1-carbonyl)-1-methyl-2-(6-methyl-pyridin-3-yl)-1H-pyrrol-3-yl]-benzonitrile]
< 100 | < 100 | Cn1cc2cc(-c3c(-c4ccc(C#N)c(F)c4)cc(C(=O)N4CCC[C@@H](N)C4)n3CCCO)ccc2n1 [Example 34, (R)-4-(5-(3-aminopiperidine-1-carbonyl)-1-(3-hydroxypropyl)-2-(2-methyl-2H-indazol-5-yl)-1H-pyrrol-3-yl)-2-fluorobenzonitrile]
< 100 | < 100 | COc1ccc(-c2c(-c3ccc(C#N)cc3)cc(C(=O)N3CCC[C@@H](N)C3)n2CCO)cc1 [Example 7, 4-[5-(3-(R)-amino-piperidine-1-carbonyl)-1-(2-hydroxy-ethyl)-2-(4-methoxy-phenyl)-1H-pyrrol-3-yl]-benzonitrile]
< 100 | < 100 | Cn1cc2cc(-c3c(-c4ccc(C#N)c(F)c4)cc(C(=O)N4CCC[C@@H](N)C4)n3C[C@@H](O)CO)ccc2n1 [Example 38, 4-(5-((R)-3-aminopiperidine-1-carbonyl)-1-((R)-2,3-dihydroxypropyl)-2-(2-methyl-2H-indazol-5-yl)-1H-pyrrol-3-yl)-2-fluorobenzonitrile]
< 100 | < 100 | Cn1c(C(=O)N2CCC[C@@H](N)C2)cc(-c2ccc(C#N)cc2)c1-c1ccncc1 [Example 6, 4-[5-(3-(R)-amino-piperidine-1-carbonyl)-1-methyl-2-pyridin-4-yl-1H-pyrrol-3-yl]-benzonitrile]
